Source: patent US20050165102A1, “Compositions and dosage forms for enhanced absorption” (priority 2003, published 2005)
Counter-ions that a name gives are not always drawn. Like-named read-outs stand apart in the source and are kept apart here.

Tests used:
[1] = rat, in vivo, po, 40 mg/kg
[2] = for Bioavailability: relative to iv gabapentin; for gabapentin plasma concentration rat1: 0 h
[3] = iv 1 mg/rat, 0 h
[4] = Flushed ligated colonic model in rats (gabapentin); conditions: for gabapentin plasma concentration Rat1: colonic intubation 10 mg/rat
From the text: The colon was flushed of fecal materials.
Each segment was observed macroscopically for irritation and any abnormality noted.

**Q.** For `CCCCCCCCCCCC(=O)O.CN(C)C(=N)N=C(N)N` [Metformin laurate], which “time of plasma concentration maximum after treatment” value [1] is on record?
**A.** The value was “about 1 hour”.

**Q.** For `CCCCCCCCCCCCOS(=O)(=O)O.NCC1(CC(=O)O)CCCCC1` [Gabapentin lauryl sulfate], which “percent bioavailability versus neat drug” value ([2]; duodenal, dosage of 20 mg (FIG. 19C)) is on record?
**A.** Its value is “higher bioavailability than did the neat drug”.

**Q.** With `CN(C)C(=N)N=C(N)N` [Metformin HCl, metformin hydrochloride, reference compound] as the molecule, how does the “time of plasma concentration maximum after treatment” value [1] read?
**A.** The value was “about 1 hour”.

**Q.** With `NCC1(CC(=O)O)CCCCC1` [Gabapentin, 1-(aminomethyl)cyclohexaneacetic acid, reference compound] as the molecule, how does the Bioavailability ([2]; duodenal 5 mg/rat (14.8 / 14.0 mg/kg)) read?
**A.** Its Bioavailability is 62.5 ± 9.4%.

**Q.** What about the Bioavailability ([2]; duodenal 10 mg/rat (30.6 / 29.1 mg/kg)) of the same molecule?
**A.** Its Bioavailability is 44.2 ± 10.1%.

**Q.** What about the Bioavailability ([2]; duodenal 20 mg/rat (59.8 / 58.1 mg/kg)) of the same molecule?
**A.** The Bioavailability was 26.2 ± 8.2%.

**Q.** What about the “gabapentin plasma concentration rat1” value ([2]; duodenal dose 5 mg/rat) of the same molecule?
**A.** The value was 0 ng/mL.

**Q.** And the “gabapentin plasma concentration rat1” value ([2]; duodenal dose 10 mg/rat)?
**A.** The value was 0 ng/mL.

**Q.** What about the “gabapentin plasma concentration rat1” value ([2]; duodenal dose 20 mg/rat) of the same molecule?
**A.** Its value is 0 ng/mL.

**Q.** What about the “gabapentin plasma concentration Rat1” value [3] of the same molecule?
**A.** The value was 0 ng/mL.

**Q.** What about the “gabapentin plasma concentration Rat1” value ([4]; 0 h) of the same molecule?
**A.** Its value is 0 ng/mL.

**Q.** And the “gabapentin plasma concentration Rat1” value ([4]; 1 h)?
**A.** Its value is 189 ng/mL.

**Q.** What about the Bioavailability ([4]; colonic, percent of intravenous administration) of the same molecule?
**A.** Its Bioavailability is 4.9%.

**Q.** And the “macroscopic observation of colonic mucosa for irritation” value ([4]; excised colonic segments after 4 hour test period)?
**A.** Its value is “no histopathological change visible to the naked eye”.
